According to US10934283B2, “COMT inhibiting methods and compositions” (LIEBER INSTITUTE FOR BRAIN DEVELOPMENT, priority 2015, dated 2021):

Assays:
[1] = molecular target: T1, aromatic amino acid decarboxylase (AAAD) (Homo sapiens, UniProt P20711); conditions: given with L-DOPA; Nutt, Woodward et al. 1985; cited from earlier work
T1 sequence (P20711 1-480): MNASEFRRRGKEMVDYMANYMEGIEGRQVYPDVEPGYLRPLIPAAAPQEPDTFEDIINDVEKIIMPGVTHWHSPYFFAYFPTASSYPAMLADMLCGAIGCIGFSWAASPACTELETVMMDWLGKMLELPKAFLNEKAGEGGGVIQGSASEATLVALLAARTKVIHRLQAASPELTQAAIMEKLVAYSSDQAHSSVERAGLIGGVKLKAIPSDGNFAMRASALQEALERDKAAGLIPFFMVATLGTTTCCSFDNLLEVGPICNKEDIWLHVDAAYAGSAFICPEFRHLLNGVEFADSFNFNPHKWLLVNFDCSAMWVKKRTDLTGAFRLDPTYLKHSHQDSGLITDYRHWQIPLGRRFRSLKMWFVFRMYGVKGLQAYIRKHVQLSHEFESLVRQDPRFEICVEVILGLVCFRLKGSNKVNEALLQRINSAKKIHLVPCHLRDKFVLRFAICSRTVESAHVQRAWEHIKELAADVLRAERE

[2] = molecular target: T2, catechol-O-methyltransferase (COMT) (Homo sapiens, UniProt P21964); assay: COMT inhibition assay (HTRF, production of SAH from SAM); type: biochemical; conditions: table does not say MB-COMT or S-COMT
T2 construct: M51A variant) was expressed in HEK 293F cells
T2 sequence (P21964 52-271 limits assumed): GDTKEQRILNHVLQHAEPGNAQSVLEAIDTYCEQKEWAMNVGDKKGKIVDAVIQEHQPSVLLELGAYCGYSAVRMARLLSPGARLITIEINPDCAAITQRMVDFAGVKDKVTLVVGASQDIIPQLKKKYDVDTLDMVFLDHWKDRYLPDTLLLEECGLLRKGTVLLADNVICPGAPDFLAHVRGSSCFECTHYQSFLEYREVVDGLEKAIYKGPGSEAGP
Procedure, shortened: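 Membranes from HEK293F cells expressing MB-COMT (M51A variant) incubated with 20 μM SAM and 1.5 μM dopamine plus compound (10 concentrations) for 40 min at 37 °C; S-COMT (Val158) at 0.15 ng/well used 100 μM dopamine, 15 min. SAH measured by HTRF against a standard curve; pIC50 from 4-parameter logistic fit.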

[3] = Nutt and Fellman 1984; cited from earlier work
[4] = Russ, et al. 1999; cited from earlier work
[5] = clinical use; Olanow and Watkins 2007; cited from earlier work

SMILES	Activity range (pIC50) [2]	also measured
C[C@@](Cc1ccc(O)c(O)c1)(NN)C(=O)O [Carbidopa]	–	reduction of the efficacious L-DOPA dose [1]: 60-80%
CC1Cn2cc(O)c(=O)cc2CN1Cc1ccccc1 (centres unmarked) [Example 131, 2-benzyl-7-hydroxy-3-methyl-1,2,3,4-tetrahydro-8H-pyrido[1,2-a]pyrazin-8-one]	++ (two plus signs (++) is associated with a pIC50 of from about 6 to 7)	–
O=c1cc2n(cc1O)CC(CCc1ccccc1)N(Cc1ccccc1)C2 (centres unmarked) [Example 132, 2-benzyl-7-hydroxy-3-(2-phenylethyl)-1,2,3,4-tetrahydro-8H-pyrido[1,2-a]pyrazin-8-one]	+++ (three plus signs (+++) is associated with a pIC50 of above about 7)	–
O=c1c(O)cn2c(c1Cl)CN(Cc1c(F)cccc1Cl)CC2 [Example 133, 9-chloro-2-(2-chloro-6-fluorobenzyl)-7-hydroxy-1,2,3,4-tetrahydro-8H-pyrido[1,2-a]pyrazin-8-one]	+++ (three plus signs (+++) is associated with a pIC50 of above about 7)	–
O=c1cc2n(c(F)c1O)CCN(Cc1ccccc1Cl)C2 [Example 134, 6-fluoro-7-hydroxy-2-[[2-chlorophenyl]methyl]-3,4-dihydro-1H-pyrido[1,2-a]pyrazin-8-one]	++ (two plus signs (++) is associated with a pIC50 of from about 6 to 7)	–
O=c1cc2n(c(F)c1O)CCN(Cc1ccc(OC(F)(F)F)cc1)C2 [Example 135, 2-[(4-(trifluoromethoxy)phenyl)methyl]-6-fluoro-7-hydroxy-3,4-dihydro-1H-pyrido[1,2-a]pyrazin-8-one]	++ (two plus signs (++) is associated with a pIC50 of from about 6 to 7)	–
CCc1ccc(CN2CCn3cc(O)c(=O)c(Cl)c3C2)cc1 [Example 136, 9-chloro-2-(4-ethylbenzyl)-7-hydroxy-1,2,3,4-tetrahydro-8H-pyrido[1,2-a]pyrazin-8-one]	+++ (three plus signs (+++) is associated with a pIC50 of above about 7)	–
O=c1c(O)cn2c(c1Cl)CN(Cc1ccccc1Cl)CC2 [Example 137, 9-chloro-2-[(2-chlorophenyl)methyl]-7-hydroxy-3,4-dihydro-1H-pyrido[1,2-a]pyrazin-8-one]	+++ (three plus signs (+++) is associated with a pIC50 of above about 7)	–
CCc1ccc(CN2CCn3cc(O)c(=O)c(Br)c3C2)cc1 [Example 138, 9-bromo-2-(4-ethylbenzyl)-7-hydroxy-1,2,3,4-tetrahydro-8H-pyrido[1,2-a]pyrazin-8-one]	+++ (three plus signs (+++) is associated with a pIC50 of above about 7)	–
O=c1c(O)cn2c(c1Br)CN(Cc1ccccc1Cl)CC2 [Example 139, 9-bromo-2-[(2-chlorophenyl)methyl]-7-hydroxy-3,4-dihydro-1H-pyrido[1,2-a]pyrazin-8-one]	+++ (three plus signs (+++) is associated with a pIC50 of above about 7)	–
O=c1c(O)cn2c(c1I)CN(Cc1ccccc1Cl)CC2 [Example 140, 2-[(2-chlorophenyl)methyl]-7-hydroxy-9-iodo-3,4-dihydro-1H-pyrido[1,2-a]pyrazin-8-one]	+ (a single plus (+) is associated with a pIC50 of from about 4.5 to 6)	–
CCc1ccc(CN2CCn3cc(O)c(=O)c(C4CC4)c3C2)cc1 [Example 141, 9-cyclopropyl-2-(4-ethylbenzyl)-7-hydroxy-1,2,3,4-tetrahydro-8H-pyrido[1,2-a]pyrazin-8-one]	++ (two plus signs (++) is associated with a pIC50 of from about 6 to 7)	–
O=c1c(O)cn2c(c1C1CC1)CN(Cc1ccccc1Cl)CC2 [Example 142, 2-[(2-chlorophenyl)methyl]-9-cyclopropyl-7-hydroxy-3,4-dihydro-1H-pyrido[1,2-a]pyrazin-8-one]	+++ (three plus signs (+++) is associated with a pIC50 of above about 7)	–
N[C@@H](Cc1ccc(O)c(O)c1)C(=O)O [L-DOPA, L-dihydroxyphenylalanine]	–	percentage of exogenously administered L-DOPA that reaches the brain [3]: ~1%
CCN(CC)C(=O)/C(C#N)=C/c1cc(O)c(O)c([N+](=O)[O-])c1 [entacapone]	–	brain penetration [4]: negligible
Cc1ccc(C(=O)c2cc(O)c(O)c([N+](=O)[O-])c2)cc1 [tolcapone]	–	liver injury [5]: serious liver injury, including three deaths; brain penetration [4]: low but measurable
